In patent US20030207886A1, “Preparation containing quinoxaline derivatives” (priority 2000, published 2003):

Assay: Maxima of UV-A and UV-B absorption of quinoxaline derivatives in 2-propanol
Format: physicochemical
Conditions: 1 mg of substance per 100 ml of solvent; for UV-A (400 320 nm) Max. abs.: absorbance at UV-A maximum; for UV-B (280 320 nm) Max. abs.: absorbance at UV-B maximum; for UV-A (400 320 nm) λ [nm]: wavelength of UV-A maximum; for UV-B (280 320 nm) λ [nm]: wavelength of UV-B maximum
Protocol: The measurement was carried out in 2-propanol at a concentration of 1 mg of substance per 100 ml of solvent.

| SMILES | UV-A (400 320 nm) Max. abs. | UV-B (280 320 nm) Max. abs. | UV-A (400 320 nm) λ [nm] | UV-B (280 320 nm) λ [nm] |
| --- | --- | --- | --- | --- |
| COc1cc(Nc2cnc3ccccc3n2)cc(OC)c1OC | 0.281 | 0.679 | 386.1 | 275.6 |
| Fc1nc2ccccc2nc1N(c1ncccn1)c1nc2ccccc2nc1F | 0.446 | – | 329.8 | – |
| c1ccc(CNc2cnc3ccccc3n2)cc1 | 0.2602 | – | 364.0 | – |
| O=C(O)c1ccc(NCc2cnc3ccccc3n2)cc1 | – | 0.837 | – | 302.9 |
| Fc1cc(F)c(N(c2cnc3ccccc3n2)c2cnc3ccccc3n2)c(F)c1 | – | 0.966 | – | 289.3 |
| O=C(/C=C/C=C/c1ccccc1)c1cnc2ccccc2n1 | 1.0497 | 0.6584 | 365.0 | 302.0 |
| O=C(/C=C/c1ccccc1)c1cnc2ccccc2n1 | 0.1731 | – | 329.0 | – |
| CCC(=O)c1cnc2ccccc2n1 | – | 0.3236 | – | 307.0 |
| COc1cc(Nc2nc3ccccc3nc2-c2ccccc2)c(C(=O)O)cc1OC | 0.235 | 0.635 | 393.4 | 285.6 |
| COC(=O)CCc1ccc2nc3nc4ccccc4nc3n2c1 | 0.3747 | – | 349.5 | – |
| FC(F)(F)c1cc(Nc2cnc3ccccc3n2)cc(C(F)(F)F)c1 | 0.262 | – | 359.8 | – |
| O=C(O)c1cc(Nc2cnc3ccccc3n2)cc(C(=O)O)c1 | 0.319 | 0.887 | 372.8 | 286.9 |
| COc1cc(Nc2cnc3ccccc3n2)c(C(=O)O)cc1OC | 0.456 | 0.455 | 380.1 | 300.1 |
| Clc1nc2ccccc2nc1C#Cc1ccccc1 | – | 0.6431 | – | 286.0 |
| O=C(O)c1ccc(Nc2cnc3ccccc3n2)c(O)c1 | 0.5594 | – | 381.0 | – |
| O=C(c1ccccc1)c1ccccc1Nc1cnc2ccccc2n1 | 0.424 | – | 395.4 | – |
| Cc1ccc(/C=C/c2nc3ccccc3[nH]c2=O)cc1 | 0.4660 | – | 336.0 | – |
| c1ccc2nc(Oc3cnc4ccccc4n3)cnc2c1 | 0.2587 | – | 320.0 | – |
| CCOC(=O)c1nc2ccccc2nc1Nc1ccc(C(C)=O)cc1 | 1.2265 | – | 328.5 | – |
| CN(C)c1cnc2ccccc2n1 | 0.413 | – | 378.0 | – |
| CCOC(=O)c1nc2ccccc2nc1Cl | 0.243 | – | 322.9 | – |
| CCOC(=O)c1ccc(Nc2cnc3ccccc3n2)cc1 | 0.5414 | 1.2839 | 375.0 | 306.0 |
| O=c1[nH]c2ccccc2nc1/C=C/C=C/c1ccccc1 | – | 0.6004 | – | 281.5 |
| CC(=O)c1ccc(Nc2cnc3ccccc3n2)cc1 | 0.622 | 1.062 | 374.9 | 314.7 |
| COC(=O)c1cc(Nc2cnc3ccccc3n2)cc(C(=O)OC)c1 | 0.322 | 0.789 | 368.3 | 287.7 |
| CCOC(=O)c1nc2ccccc2[nH]c1=O | 0.245 | 0.279 | 355.8 | 290.0 |

| SMILES | UV-A (400 320 nm) Max. abs. | UV-B (280 320 nm) Max. abs. | UV-A (400 320 nm) λ [nm] | UV-B (280 320 nm) λ [nm] |
| --- | --- | --- | --- | --- |
| CCc1ccn2c(c1)nc1nc3ccccc3nc12 | 0.536 | – | 356.1 | – |
| CC(C)OC(=O)c1ccc(Nc2nc3ccccc3nc2-c2ccccc2)cc1 | 0.342 | 0.849 | 381.9 | 305.3 |
| Nc1nc2ccccc2nc1Cl | 0.427 | – | 353.4 | – |
| Cc1ccc(/C=C/c2nc3ccccc3nc2/C=C/c2ccc(C)cc2)cc1 | – | 0.3327 | – | 316.0 |
| CC(=O)c1nc2ccccc2nc1C(C)=O | – | 0.3011 | – | 310.0 |
| Cc1nc2ccc(Cl)cc2nc1C | 0.400 | – | 322.0 | – |
| CCOC(=O)c1nc2ccccc2nc1Nc1cc(F)c(F)cc1C(=O)O | 0.1187 | 0.4067 | 381.5 | 287.0 |
| O=C(/C=C/c1ccc2c(c1)OCO2)c1cnc2ccccc2n1 | 0.5101 | 0.4556 | 381.0 | 305.0 |
| O=C(O)c1ccc(Nc2nc3ccccc3nc2-c2ccccc2)cc1 | 0.325 | 0.452 | 376.8 | 303.8 |
| Clc1nc2ccccc2nc1-c1ccccc1 | 0.173 | – | 335.0 | – |
| Fc1ccc2nc3nc4ccccc4nc3n2c1 | 0.132 | – | 344.6 | – |
| CCOC(=O)c1nc2ccccc2nc1Nc1cc(OC)c(OC)c(OC)c1 | – | 0.614 | – | 295.6 |
| CC(C)(C)OC(=O)c1ccc(Nc2cnc3ccccc3n2)cc1 | 0.506 | 1.172 | 374.3 | 306.3 |
| CC(=O)c1ccn2c(c1)nc1nc3ccccc3nc12 | 0.533 | – | 364.8 | – |
| O=C(OC/C=C/c1ccccc1)c1ccccc1Nc1cnc2ccccc2n1 | 0.469 | – | 386.3 | – |
| CC(C)OC(=O)c1ccc(Nc2cnc3ccccc3n2)cc1 | 0.555 | 1.262 | 374.3 | 306.7 |
| CCOC(=O)c1nc2ccccc2nc1Nc1ccc(C(=O)O)cc1 | – | 1.270 | – | 311.5 |
| c1ccc2nc3c(nc2c1)nc1ccccn13 | 0.411 | – | 348.3 | – |
| O=c1[nH]c2ccccc2nc1/C=C/c1ccccc1 | 0.7324 | – | 388.5 | – |
| O=C(O)c1ccc(CNc2nc3ccccc3nc2Cl)cc1 | – | 0.2183 | – | 290.0 |
| CCC(CC)COC(=O)c1ccc(Nc2cnc3ccccc3n2)c(O)c1 | – | 0.5569 | – | 291.0 |
| CCOC(=O)c1nc2ccccc2nc1Nc1cc(OC)c(OC)cc1C(=O)O | – | 0.5713 | – | 295.0 |
| FC(F)(F)c1cc(CNc2cnc3ccccc3n2)cc(C(F)(F)F)c1 | 0.192 | – | 359.0 | – |
| CC(C)(C)OC(=O)c1ccc(Nc2nc3ccccc3nc2Cl)cc1 | – | 0.4672 | – | 291.0 |
| C(#Cc1nc2ccccc2nc1C#Cc1ccccc1)c1ccccc1 | 0.4443 | 0.8366 | 385.0 | 294.0 |
| COc1cc(Nc2nc3ccccc3nc2-c2ccccc2)cc(OC)c1OC | 0.175 | 0.475 | 390.4 | 287.6 |
